For orientation: Ki means a measure of affinity in units of concentration, obtained from inhibition or displacement. For orientation: Papp means a coefficient for how fast a substance crosses the barrier. A low value points to slow passage. As a reminder, the half-life is the time in which the quantity being followed falls by half.

One series deals with Histamine H3 receptor (Homo sapiens, UniProt Q9Y5N1). In words: Binding affinity towards human Histamine H3 receptor using [3H]N-methyl-histamine as radioligand.
Another series relates to SK-N-MC. In words: Compound was evaluated in a functional assay against […] cells stably transfected with the human H3 receptor. It counts as cell-based. As to conditions: read-out: pA2 (converted).
The next series concerns Caco-2. As to the kind of experiment: Permeability was evaluated using Caco-2 cells. It counts as functional, cell-based. As to conditions: Homo sapiens.
Series [1] is described as follows: Half-life was determined. It counts as ADME. Conditions: human.
The species named for another series is Rattus norvegicus. As to the kind of experiment: Compound was evaluated in a functional assay for determining rat pA2. As to conditions: read-out: pA2 (converted).

Sequence of Histamine H3 receptor (Q9Y5N1 whole entry): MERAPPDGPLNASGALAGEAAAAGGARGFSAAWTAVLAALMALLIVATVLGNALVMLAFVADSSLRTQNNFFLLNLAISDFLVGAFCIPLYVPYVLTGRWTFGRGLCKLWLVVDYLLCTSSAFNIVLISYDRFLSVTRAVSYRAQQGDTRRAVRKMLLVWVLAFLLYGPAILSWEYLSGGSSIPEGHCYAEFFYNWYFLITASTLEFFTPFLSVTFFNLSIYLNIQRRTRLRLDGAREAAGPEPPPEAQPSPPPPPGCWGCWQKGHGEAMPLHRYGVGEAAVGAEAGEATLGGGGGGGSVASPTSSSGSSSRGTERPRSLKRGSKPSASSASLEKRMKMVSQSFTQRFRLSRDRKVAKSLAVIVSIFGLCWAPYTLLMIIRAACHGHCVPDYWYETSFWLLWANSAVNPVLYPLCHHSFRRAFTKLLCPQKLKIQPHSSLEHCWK

At Histamine H3 receptor, `c1ccc2[nH]c(-c3ccc(OCCCN4CCCCC4)cc3)cc2c1` showed a Ki of 47 nM. For `Cc1cccn2cc(-c3ccc(OCCCN4CCCCC4)cc3)cc12`, on Histamine H3 receptor, the Ki is 40 nM.

As to `c1ccc(-c2c(-c3ccc(OCCCN4CCCCC4)cc3)cn3ccccc23)cc1`, the Ki on Histamine H3 receptor was 40 nM. On the same count and under the same terms, the result for `c1ccc(CCc2c(-c3ccc(OCCCN4CCCCC4)cc3)cn3ccccc23)cc1` reads 37 nM. In the case of `c1ccn2cc(-c3ccc(OCCCN4CCCCC4)cc3)cc2c1`, the Kb in the series on SK-N-MC was 3.16 nM; in the series filed under Rattus norvegicus it was 19.5 nM. Moreover, in the series on Caco-2, the Papp was 0.14 ×10⁻⁶ cm/s. Besides, in series [1], the half-life stood at 10 min. For the same compound, affinity on Histamine H3 receptor was put at a Ki of 13 nM. `Cc1ccc2cc(-c3ccc(OCCCN4CCCCC4)cc3)cn2c1` had a Ki at Histamine H3 receptor of 28 nM.

`c1ccn2nc(-c3ccc(OCCCN4CCCCC4)cc3)cc2c1` came in with a Ki on Histamine H3 receptor of 11 nM.

With `Cc1c(-c2ccc(OCCCN3CCCCC3)cc2)cn2ccccc12`, at Histamine H3 receptor, affinity was put at a Ki of 16 nM. Regarding `Cc1cc(OCCCN2CCCCC2)ccc1-c1cn2ccccc2c1C`, on Histamine H3 receptor, affinity was put at a Ki of 11 nM. The same measure, in the same setting: under `Cc1cc(OCCCN2CCCCC2)ccc1-c1cc2ccccn2c1` stands 152 nM; under `Cc1cccc2cc(-c3ccc(OCCCN4CCCCC4)cc3)cn12`, 46 nM. The compound `Cc1c(-c2ccc(OCCCN3CCCCC3)cc2)cc2ccccn12` displayed a half-life in series [1] of 54 min. Moreover, the inhibition constant Ki on Histamine H3 receptor worked out at 2 nM. With `c1cc(OCCCN2CCCCC2)cc(-c2cc3ccccn3c2)c1`, the Ki on Histamine H3 receptor was found to be 308 nM. This counts as sub-micromolar. On the same count and under the same terms, the result for `Cc1ccn2cc(-c3ccc(OCCCN4CCCCC4)cc3)cc2c1` reads 40 nM.

Compound `c1ccc(-c2cc3ccccn3c2)c(OCCCN2CCCCC2)c1` displayed a Ki on Histamine H3 receptor of 236 nM. Same read-out and setting: the result for `CCc1c(-c2ccc(OCCCN3CCCCC3)cc2)cn2ccccc12` reads 19 nM; that for `CS(=O)(=O)n1c(-c2ccc(OCCCN3CCCCC3)cc2)cc2ccccc21`, 16 nM. Same read-out and setting: the result for `CCc1c(-c2ccc(OCCCN3CCCCC3)cc2)cc2ccccn12` reads 5 nM.

These data come from ChEMBL document CHEMBL1145732, “Non-imidazole heterocyclic histamine H3 receptor antagonists” (Bioorg Med Chem Lett, 2003).
